Like-named read-outs stand apart in the source and are kept apart here.

For the series the following is noted: amide bond.
Where [1] appears, read: the molecule shown is the open-chain precursor, 23-membered ring, as Reference Example 8 (not in excerpt), 3 steps.

Regarding Acp-Asn-Leu-Ser(Bzl)-Thr(Bzl)-Asp-OEt, the ring closure, isolated yield (23-membered ring, ONp active ester (from TFA-ONp)/pyridine, pyridine/DMF, 50.0 °C, 3 steps) came to 26.6%. On to “H-Abu-Asn-Leu-Ser(Bzl)-Thr(Bzl)-Cec(ONp)-OMe?”, for which the ring closure, isolated yield (the molecule shown is the open-chain precursor, as Reference Example 8 (not in excerpt), 3 steps) came to 47.1%. In the case of “H-Asn-Leu-Ser(Bzl)-Thr(Bzl)-Lys(COCH2CH2CO-ONp)-OMe?”, under setting [1], the ring closure, isolated yield came to 34.9%.

“H-Ser(Bzl)-Asn-Leu-Ser(Bzl)-Thr(Bzl)-Cpc(ONp)-OMe?” displayed a ring closure, isolated yield under setting [1] of 55.9%.

“H-Ser(Bzl)-Asn-Leu-Ser(Bzl)-Thr(Bzl)-Tyr(CH2CO-ONp)-OMe?” came in with a ring closure, isolated yield (the molecule shown is the open-chain precursor, 25-membered ring, as Reference Example 8, then Reference Example 9 (not in excerpt), 4 steps) of 43.8%.

(Values after US5204326.)
